In PubChem BioAssay (NCI):
“And” between values parts separate entries of the source, which are not always exact repeats. Equal values may be shown once.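 48-hour exposure; five concentrations; linearly interpolated endpoints. TGI: total growth inhibition.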

What was measured:
Assay in all cases: NCI tumour cell line growth inhibition, 48 h
[1] = system: A549 NSCLC
[2] = system: ACHN renal
[3] = system: CCRF-CEM leukemia
[4] = system: HCT-116 colon
[5] = system: HCT-15 colon
[6] = system: HS 578T breast
[7] = system: IGROV1 ovarian
[8] = system: LOX IMVI melanoma
[9] = system: M14 melanoma
[10] = system: MALME-3M melanoma
[11] = system: MCF7 breast
[12] = system: MDA-N
[13] = system: NCI-H522 lung
[14] = system: OVCAR-4 ovarian
[15] = system: OVCAR-5 ovarian
[16] = system: OVCAR-8 ovarian
[17] = system: HOP-92 NSCLC

| Compound | TGI [1] | TGI [2] | TGI [3] | TGI [4] | TGI [5] | TGI [6] | TGI [7] | TGI [8] | TGI [9] | TGI [10] | TGI [11] | TGI [12] | TGI [13] | TGI [14] | TGI [15] | TGI [16] | TGI [17] |
| --- | --- | --- | --- | --- | --- | --- | --- | --- | --- | --- | --- | --- | --- | --- | --- | --- | --- |
| CCCSc1cc(Cl)c(C)cc1S(=O)(=O)n1cc[nH]c1=O | > 100 µM | > 100 µM | > 100 µM | > 100 µM | > 100 µM | > 100 µM | > 100 µM | > 100 µM | > 100 µM | > 100 µM | > 100 µM | > 100 µM | > 100 µM | > 100 µM | > 100 µM | > 100 µM |  |
| CCOC(=O)CSc1nc2ccccc2c(=O)n1N | > 100 µM | > 100 µM |  | > 100 µM | > 100 µM | > 100 µM | > 100 µM | > 100 µM | > 100 µM | > 100 µM | > 100 µM | > 100 µM | > 100 µM | > 100 µM | > 100 µM | > 100 µM | > 100 µM |
| O=C(O)C(Cc1ccc(O)cn1)NC(=O)C(F)(F)F (configuration not stated) | > 100 µM | > 100 µM | > 100 µM | > 100 µM | > 100 µM | > 100 µM | > 100 µM | > 100 µM |  | > 100 µM | > 100 µM | > 100 µM | > 100 µM |  | > 100 µM | > 100 µM |  |
| [N-]=[N+]=NC1(N=[N+]=[N-])C(=O)NN=C(c2ccccc2)C1=O (configuration not stated) | > 100 µM | > 100 µM | 83.9 µM | 38.7 µM | > 100 µM | > 100 µM | > 100 µM | 92.9 µM | > 100 µM | > 100 µM | > 100 µM | 61.3 µM | > 100 µM | > 100 µM |  | > 100 µM | > 100 µM |
| CCOC(=O)C(NNS(=O)(=O)c1ccc(C)cc1)S(=O)(=O)C(F)(F)C(F)(F)C(F)(F)C(F)(F)F (configuration not stated) | > 100 µM | > 100 µM |  | > 100 µM | > 100 µM | > 100 µM | > 100 µM | > 100 µM | > 100 µM | > 100 µM | > 100 µM | > 100 µM | > 100 µM | > 100 µM | > 100 µM | > 100 µM | > 100 µM |
| COC(=O)c1cc(NC2OCC(OC(C)=O)C(OC(C)=O)C2OC(C)=O)nc(SC)c1C(=O)OC (configuration not stated) | > 100 µM | > 100 µM | > 100 µM | > 100 µM | > 100 µM | > 100 µM | > 100 µM | > 100 µM | > 100 µM |  | > 100 µM | > 100 µM | > 100 µM | > 100 µM | > 100 µM | > 100 µM | > 100 µM |
| CCC1(O)CC(OC2CC(N(C)C)C(OC3CC(O)C(OC4OC(C)C(=O)C=C4N)C(C)O3)C(C)O2)c2c(O)c3c(c(O)c2C1C(=O)OC)C(=O)c1cccc(O)c1C3=O (configuration not stated) |  |  | 0.0761 µM and 0.0126 µM | > 100 µM | 1.17 µM | 0.366 µM and 1.47 µM |  | 0.613 µM | 0.0268 µM | 0.0947 µM | 1.4 µM | 0.118 µM and 0.012 µM | 0.203 µM |  | 0.16 µM and 0.966 µM | 0.261 µM | 1.67 µM |
| COc1cc(-c2c[nH]c3ccccc23)nc(-c2c[nH]c3ccccc23)n1 | 12.5 µM | 8.46 µM | 3.08 µM | 13.6 µM | 22.3 µM | 68 µM | 13.6 µM | 16.5 µM | 14.8 µM |  | 14.9 µM | 14.2 µM |  | 28.8 µM | 22.1 µM | 19.3 µM | 8.53 µM |
| CC1=CC(C)C(C)N(CCNC(=O)Nc2ccccc2)c2ccccc21 (configuration not stated) | 55.7 µM | 63.7 µM | 62.8 µM | 35 µM | 72 µM | 30.3 µM | > 100 µM | 24.3 µM | 70 µM | 70.2 µM | 50.3 µM | > 100 µM | 40.2 µM | > 100 µM | 92.6 µM | 54.3 µM |  |
| Cn1c(=O)n(-c2c3ccccc3c(Cl)c3ccccc23)n(C(C)(C)C)c1=O | > 100 µM | > 100 µM | > 100 µM | > 100 µM | > 100 µM | > 100 µM | > 100 µM | > 100 µM | > 100 µM | > 100 µM | > 100 µM | > 100 µM | > 100 µM |  | > 100 µM | > 100 µM | > 100 µM |
| O=C(OCc1ccccc1)N1CCNCCNCC1 | > 100 µM | > 100 µM | > 100 µM | > 100 µM | > 100 µM | > 100 µM | > 100 µM | > 100 µM | > 100 µM |  | > 100 µM | > 100 µM | > 100 µM | > 100 µM | > 100 µM | > 100 µM | > 100 µM |
| O=C1CC2[C@@H](N3CCCC3)CCC(N1Cc1ccccc1)C2(O)O (some centres not stated) | > 100 µM | > 100 µM | > 100 µM | > 100 µM | > 100 µM | > 100 µM | > 100 µM | > 100 µM | > 100 µM | > 100 µM | > 100 µM | > 100 µM | > 100 µM |  | > 100 µM | > 100 µM | > 100 µM |
| COc1ccc(C2Oc3c(cccc3OC)C=C2[N+](=O)[O-])cc1OC (configuration not stated) | > 100 µM | 29.3 µM | > 100 µM | 17.4 µM | 24 µM | > 100 µM | 24.7 µM | 20.5 µM | 19.6 µM | 38.7 µM | > 100 µM | > 100 µM | 12.8 µM | > 100 µM | 51.4 µM |  |  |
| Cc1[nH]c2c(C)ccc(C)c2c1CC(=O)O | > 100 µM | > 100 µM | 42.3 µM | > 100 µM | > 100 µM | 60.4 µM | > 100 µM | > 100 µM | > 100 µM | > 100 µM | > 100 µM | > 100 µM | 62.1 µM | > 100 µM | > 100 µM | > 100 µM |  |
